From patent US20220339135A1, “COMPOSITIONS AND METHODS FOR MODULATING AN INFLAMMATORY RESPONSE” (Enzychem Lifesciences Corporation, priority 2019, published 2022)

What was measured:
IMQ-induced psoriasis = experiment: IMQ-induced psoriasis-like skin inflammation in mice; format: in vivo; conditions: PLAG 250 mg/kg/day orally, 5 days
From the text: Vaseline (Unilever, United Kingdom) was used as a control vehicle cream. […] Control (non-treated) and IMQ-treated groups were administrated orally with the same PBS daily. Psoriasis was scored by a blinded investigator using published criteria based on the following parameters: erythema, scaling, and thickening. […] The tissue sections were stained with hematoxylin and eosin (H&E). For IHC analyses, back skin serial sections were cut and mounted on charged glass slides (Superfrost Plus; Fisher Scientific, Rochester, N.Y., USA). The sections were deparaffinized and then treated with 3% hydrogen peroxide in methanol to quench the endogenous peroxidase activity. […] The sections were incubated with the primary anti-mouse IL-17 (abcam) antibody (1:100) or rat anti-mouse neutrophil (NIMP-R14, Thermo Fisher Scientific Inc.) antibody (1:100) at 4° C. overnight. […] On Day 5, mice were sacrificed and the isolated tissues were analyzed (FIG. 10A). On Day 5, mice were sacrificed and the isolated back skin tissues of control, IMQ treated and IMQ/PLAG co-treated mice were analyzed (FIG. 10B). […] The scoring of control, IMQ treated, and IMQ/PLAG co-treated mice calculated by a blinded investigator using published criteria based on the following parameters: erythema, scaling, and thickening (FIG. 10C). IMQ-treated back skin and one ear were isolated and skin thickness was measured (FIGS. 10D and 10E). […]

[1] = system: intracellular lysosomes of Raw264.7 cells; experiment: LPS-induced lysosomal activity (LYSO-ID); format: cell-based; conditions: LPS/PLAG treatment
Experimental: Raw264.7 cells were divided into two groups: 1) LPS treated group and 2) LPS/PLAG treated group. For the LPS treated group, cells were treated with 100 μg/ml of DMSO (as solvent control) for 1 hour and treated with LPS (100 ng/ml) for 15, 30, 60, and 120 minutes. For LPS/PLAG treated group, cells were treated with PLAG (100 μg/ml) for 1 hour and treated with LPS (100 ng/ml) for 15, 30, 60, and 120 minutes. Cells were then fixed and stained using rat anti-TLR4/MD2 antibody with Alexa488-conjugated anti-rat IgG secondary antibody. These were analyzed by confocal microscopy. Raw264.7 cells stimulated under the same conditions were fixed, permeabilized, and stained with CM-H2DCFDA, the LYSO-ID® Lysosomal Detection Kit and rabbit anti-p47phox. Confocal microscopy was performed; all data shown represent one experiment performed in triplicate.

[2] = system: MIP2 and CXCL8 in BMDM and THP-1; experiment: Gemcitabine-induced MIP-2 / CXCL8, RT-PCR and ELISA; format: cell-based; conditions: dose-dependent
From the text: Total RNA was extracted using the Total RNA Extraction Solution (Favorgen, Taiwan), according to the manufacturer's instructions. This RNA was used in reverse transcription reactions with oligo-dT primers and M-MLV RT reagents (Promega, Madison, Wis., USA), according to the manufacturer's instructions. For RT-PCR, the synthesized cDNA was mixed with 2×PCR Master Mix (Solgent, Daejeon, Republic of Korea) and 10 pmol specific PCR primer pair following the manufacturer's protocol. […] An SYBR Green kit (Applied Biosystems, Foster City, Calif., USA) was used for real-time PCR (qPCR) analysis of cDNA according to the manufacturer's instructions. […] The relative expression levels of target genes were calculated by the 2^-ΔΔCT relative quantification method. […] The concentration of MIP-2 was measured using ELISA kits for MIP-2 (R&D Systems, Minneapolis, Minn., USA according to the manufacturers' instructions. Cytokine levels were estimated by interpolation from a standard curve generated using an ELISA reader (Molecular Devices) at 450 nm. Total RNAs from cells were isolated using TRIzol® reagent (Invitrogen, CA, USA) according to the manufacturer's instructions. RT-PCR was performed using PCR reagent (Bioassay, Daejeon, South Korea). […]

CCCCC/C=C\C/C=C\CCCCCCCC(=O)OC(COC(C)=O)COC(=O)CCCCCCCCCCCCCCC (racemic) [PLAG, 1-palmitoyl-2-linoleoyl-3-acetylglycerol]
IMQ-induced psoriasis symptoms (IMQ-induced psoriasis): effectively resolved | lysosomal activity initiated [1]: 15 min | return to homeostatic levels of lysosomal activity [1]: 60 min | gemcitabine-induced chemokines MIP2 and CXCL8, transcriptional and secreted protein level [2]: effectively reduced
